US20060069132A1, “Azolecarboxamide herbicides” (priority 2004, published 2006)

Legend:
barnyardgrass [1] = experiment: Test A pre-/postemergence herbicide test; assay type: in vivo, Echinochloa crus-galli; conditions: for Plant response rating, Barnyardgrass: Postemergence; for Barnyardgrass plant response rating: Preemergence
Summary of the method: (§1)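 Seeds sown in sandy loam received a preemergence directed soil spray of compound in non-phytotoxic solvent with surfactant; postemergence plants (2–10 cm, one- to two-leaf stage) were sprayed to runoff at the same time. After ~10 days in greenhouse, injury was rated visually versus untreated controls (0 = no effect, 100 = complete control).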

large crabgrass [2] = experiment: Test A pre-/postemergence herbicide test; assay type: in vivo, Digitaria sanguinalis; conditions: for Plant response rating, Crabgrass, Large: Postemergence; for Crabgrass, Large plant response rating: Preemergence
Summary of the method: as §1

giant foxtail [3] = experiment: Test A pre-/postemergence herbicide test; assay type: in vivo, Setaria faberi; conditions: for Plant response rating, Foxtail, Giant: Postemergence; for Foxtail, Giant plant response rating: Preemergence
Summary of the method: as §1

morningglory [4] = experiment: Test A pre-/postemergence herbicide test; assay type: in vivo, Ipomoea spp.; conditions: for Plant response rating, Morningglory: Postemergence; for Morningglory plant response rating: Preemergence
Summary of the method: as §1

redroot pigweed = experiment: Test A pre-/postemergence herbicide test; assay type: in vivo, Amaranthus retroflexus; conditions: for Plant response rating, Pigweed: Postemergence; for Pigweed plant response rating: Preemergence
Summary of the method: as §1

velvetleaf [5] = experiment: Test A pre-/postemergence herbicide test; assay type: in vivo, Abutilon theophrasti; conditions: for Velvetleaf plant response rating: Preemergence, visual rating, 0 to 100 scale (0 no effect, 100 complete control)
Summary of the method: as §1

barnyardgrass [6] = experiment: Test B pre-/postemergence herbicide test; assay type: in vivo, Echinochloa crus-galli
Summary of the method: (§2)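 Formulation: non-phytotoxic solvent mix with surfactant. Timing: preemergence on seed and postemergence on 2–18 cm plants, applied concurrently. Readout after 13–15 d greenhouse: visual 0–100 control rating against controls.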

Surinam grass = experiment: Test B pre-/postemergence herbicide test; assay type: in vivo, Urochloa decumbens
Summary of the method: (§3)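 Seeds were planted and treated preemergence with compounds formulated in a non-phytotoxic solvent mixture containing surfactant, while plants at the 1- to 4-leaf stage (2 to 18 cm) received postemergence sprays. Flooded paddy plants were grown to the 2-leaf stage. After 13 to 15 days in a greenhouse, injury was visually rated 0–100 against untreated controls.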

cocklebur = experiment: Test B pre-/postemergence herbicide test; assay type: in vivo, Xanthium strumarium
Summary of the method: as §2

corn = experiment: Test B pre-/postemergence herbicide test; assay type: in vivo, Zea mays
Summary of the method: as §3

large crabgrass [7] = experiment: Test B pre-/postemergence herbicide test; assay type: in vivo, Digitaria sanguinalis
Summary of the method: as §3

giant foxtail [8] = experiment: Test B pre-/postemergence herbicide test; assay type: in vivo, Setaria faberi
Summary of the method: as §3

lambsquarters = experiment: Test B pre-/postemergence herbicide test; assay type: in vivo, Chenopodium album
Summary of the method: as §3

morningglory [9] = experiment: Test B pre-/postemergence herbicide test; assay type: in vivo, Ipomoea coccinea
Summary of the method: as §2

pigweed = experiment: Test B pre-/postemergence herbicide test; assay type: in vivo, Amaranthus retroflexus
Summary of the method: as §3

rice [10] = experiment: Test B pre-/postemergence herbicide test; assay type: in vivo, Oryza sativa; conditions: preemergence, 125 g ai/ha; 0 to 100 scale, 0 is no effect, 100 is complete control
Summary of the method: as §3

velvetleaf [11] = experiment: Test B pre-/postemergence herbicide test; assay type: in vivo, Abutilon theophrasti
Summary of the method: as §3

blackgrass = experiment: Test B postemergence herbicide test; assay type: in vivo, Alopecurus myosuroides; conditions: scale 0 (no effect) to 100 (complete control)
Summary of the method: (§4)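 Scale 0–100: zero equals no visible effect, 100 complete control, judged by eye relative to controls. Timing: 13 to 15 days in greenhouse post-treatment. Growth stage at spraying: two leaves (paddy) or one to four leaves, 2–18 cm (postemergence).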

wheat = experiment: Test B postemergence herbicide test; assay type: in vivo, Triticum aestivum; set-up: key to Wheat plant response rating: 0 = no effect, 100 = complete control; conditions: scale 0 (no effect) to 100 (complete control)
Summary of the method: (§5)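 Read-out: visual comparison with controls, scored 0 to 100, where 100 means complete control and 0 no effect. Formulated chemicals were applied postemergence to plants 2–18 cm tall (1- to 4-leaf), or to flooded-paddy plants at the 2-leaf stage, then held 13 to 15 days under glass.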

wild oat = experiment: Test B postemergence herbicide test; assay type: in vivo, Avena fatua; conditions: scale 0 (no effect) to 100 (complete control)
Summary of the method: as §5

rice [12] = experiment: Test B flooded paddy test; assay type: in vivo, Oryza sativa; conditions: 1000 g ai/ha, visual rating, scale 0 to 100 (0 no effect, 100 complete control), 13 to 15 days
Summary of the method: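 Visual ratings, 0 (no effect) to 100 (complete control), made versus controls after 13–15 d greenhouse. Paddy plants treated at 2-leaf stage; postemergence plants at 1- to 4-leaf stage, 2–18 cm tall.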

[13] = system: small flower umbrella sedge; experiment: Test B flooded paddy test; assay type: in vivo, Cyperus difformis; conditions: 1000 g ai/ha, visual rating, scale 0 to 100 (0 no effect, 100 complete control), 13 to 15 days
Summary of the method: as §4

ducksalad = experiment: Test B flooded paddy test; assay type: in vivo, Heteranthera limosa; conditions: 1000 g ai/ha, visual rating, scale 0 to 100 (0 no effect, 100 complete control), 13 to 15 days
Summary of the method: as §4

barnyardgrass [14] = experiment: Test B flooded paddy test; assay type: in vivo, Echinochloa crus-galli; conditions: 1000 g ai/ha, visual rating, scale 0 to 100 (0 no effect, 100 complete control), 13 to 15 days
Summary of the method: as §4

[15] = 500 g ai/ha, 0 to 100 scale, 0 no effect, 100 complete control
[16] = 2000 g ai/ha, 0 to 100 scale, 0 no effect, 100 complete control
[17] = 500 g ai/ha, visual rating, 0 to 100 scale (0 no effect, 100 complete control)
[18] = Postemergence, 500 g ai/ha, visual rating after 13 to 15 days, scale 0 (no effect) to 100 (complete control)
[19] = Preemergence, 500 g ai/ha, scale 0 to 100
[20] = postemergence, 125 g ai/ha, visual rating, scale 0 (no effect) to 100 (complete control)
[21] = preemergence, 125 g ai/ha, 0 to 100 scale, 0 is no effect, 100 is complete control
[22] = Postemergence, 500 g ai/ha, visual rating after 13 to 15 days
[23] = postemergence, 125 g ai/ha, visual rating

CCn1nc(C(C)(C)C)cc1C(=O)Nc1cccc2c1CCN(C1CCCC1)C2=O [Compound 66]
Plant response rating, Barnyardgrass (barnyardgrass [1]; [15]): 0 | Plant response rating, Barnyardgrass (barnyardgrass [1]; [16]): 0 | Barnyardgrass plant response rating (barnyardgrass [1]; [17]): 0 | Barnyardgrass plant response rating (barnyardgrass [1]; [16]): 20 | Plant response rating, Crabgrass, Large (large crabgrass [2]; [15]): 0 | Plant response rating, Crabgrass, Large (large crabgrass [2]; [16]): 0 | Crabgrass, Large plant response rating (large crabgrass [2]; [17]): 0 | Crabgrass, Large plant response rating (large crabgrass [2]; [16]): 0 | Plant response rating, Foxtail, Giant (giant foxtail [3]; [15]): 0 | Plant response rating, Foxtail, Giant (giant foxtail [3]; [16]): 0 | Foxtail, Giant plant response rating (giant foxtail [3]; [17]): 0 | Foxtail, Giant plant response rating (giant foxtail [3]; [16]): 0 | Plant response rating, Morningglory (morningglory [4]; [15]): 0 | Plant response rating, Morningglory (morningglory [4]; [16]): 0 | Morningglory plant response rating (morningglory [4]; [17]): 0 | Morningglory plant response rating (morningglory [4]; [16]): 0 | Plant response rating, Pigweed (redroot pigweed; [15]): 10 | Plant response rating, Pigweed (redroot pigweed; [16]): 10 | Pigweed plant response rating (redroot pigweed; [17]): 0 | Pigweed plant response rating (redroot pigweed; [16]): 0 | Plant response rating, Velvetleaf (velvetleaf [5]; Postemergence, 2000 g ai/ha, 0 to 100 scale, 0 no effect, 100 complete control): 0 | Velvetleaf plant response rating (velvetleaf [5]; 500 g ai/ha): 0 | Velvetleaf plant response rating (velvetleaf [5]; 2000 g ai/ha): 0 | Plant response rating, Barnyardgrass (barnyardgrass [6]; [18]): 10 | Barnyardgrass plant response rating (barnyardgrass [6]; [19]): 30 | Barnyardgrass plant response rating (barnyardgrass [6]; [20]): 0 | Plant response rating, Barnyardgrass (barnyardgrass [6]; [21]): 0 | Plant response rating, Surinam Grass (Surinam grass; [18]): 10 | Surinam Grass plant response rating (Surinam grass; [20]): 10 | Plant response rating, Surinam Grass (Surinam grass; [21]): 0 | Plant response rating, Cocklebur (cocklebur; [18]): 30 | Cocklebur plant response rating (cocklebur; [19]): 0 | Cocklebur plant response rating (cocklebur; [20]): 20 | Plant response rating, Cocklebur (cocklebur; [21]): 0 | Plant response rating, Corn (corn; [18]): 20 | Corn plant response rating (corn; [19]): 0 | Corn plant response rating (corn; [20]): 10 | Plant response rating, Corn (corn; [21]): 0 | Plant response rating, Crabgrass, Large (large crabgrass [7]; [18]): 10 | Crabgrass, Large plant response rating (large crabgrass [7]; [19]): 10 | Crabgrass, Large plant response rating (large crabgrass [7]; [20]): 0 | Plant response rating, Crabgrass, Large (large crabgrass [7]; [21]): 0 | Plant response rating, Foxtail, Giant (giant foxtail [8]; [18]): 20 | Foxtail, Giant plant response rating (giant foxtail [8]; [19]): 10 | Foxtail, Giant plant response rating (giant foxtail [8]; [20]): 0 | Plant response rating, Foxtail, Giant (giant foxtail [8]; [21]): 0 | Plant response rating, Lambsquarters (lambsquarters; [18]): 70 | Lambsquarters plant response rating (lambsquarters; [20]): 60 | Plant response rating, Lambsquarters (lambsquarters; [21]): 0 | Plant response rating, Morningglory (morningglory [9]; [18]): 20 | Morningglory plant response rating (morningglory [9]; [20]): 20 | Plant response rating, Morningglory (morningglory [9]; [21]): 0 | Plant response rating, Pigweed (pigweed; [18]): 30 | Pigweed plant response rating (pigweed; [20]): 20 | Plant response rating, Pigweed (pigweed; [21]): 0 | Plant response rating, Rice (rice [10]): 0 | Plant response rating, Velvetleaf (velvetleaf [11]; [18]): 10 | Velvetleaf plant response rating (velvetleaf [11]; [20]): 10 | Plant response rating, Velvetleaf (velvetleaf [11]; [21]): 0 | Plant response rating, Blackgrass (blackgrass; [22]): 20 | Blackgrass plant response rating (blackgrass; [23]): 0 | Plant response rating, Wheat (wheat; [22]): 10 | Wheat plant response rating (wheat; [23]): 0 | Plant response rating, Oat, Wild (wild oat; [22]): 10 | Oat, Wild plant response rating (wild oat; [23]): 10 | Rice plant response rating (rice [12]): 0 | Sedge, Umbrella plant response rating [13]: 10 | Ducksalad plant response rating (ducksalad): 0 | Barnyardgrass plant response rating (barnyardgrass [14]): 10
